Results: the NIST ThermoML archive (doi:10.1021/je300134c)

Test: xn = mol fraction of the nth substance listed
Conditions: 101 kPa, Liquid; for speed of sound: Sing-around technique in a fixed-path interferometer; for mass density: Vibrating tube method

CCCC[N+]1(C)CCCC1.O=S(=O)([O-])C(F)(F)F [1-butyl-1-methylpyrrolidinium trifluoromethanesulfonate] + O
Conditions | mass density [kg/m3] | speed of sound [m/s]
278.15 K, x1 = 0.04996 | 1113.86 | 1595.9
278.15 K, x1 = 0.1 | 1163.55 | 1607.6
278.15 K, x1 = 0.1507 | 1190.82 | 1602.9
278.15 K, x1 = 0.1999 | 1208.34 | 1594.2
278.15 K, x1 = 0.2996 | 1229.14 | 1574.1
278.15 K, x1 = 0.3986 | 1240.96 | 1557
278.15 K, x1 = 0.4982 | 1248.7 | 1543.7
278.15 K, x1 = 0.5996 | 1254.27 | 1533.2
278.15 K, x1 = 0.6993 | 1258.35 | 1525.3
278.15 K, x1 = 0.8017 | 1261.86 | 1519.6
278.15 K, x1 = 0.8993 | 1264.45 | 1514
278.15 K, x1 = 1 | 1267.23 | 1513.5
288.15 K, x1 = 0.04996 | 1108.53 | 1594.7
288.15 K, x1 = 0.1 | 1156.83 | 1596.2
288.15 K, x1 = 0.1507 | 1183.59 | 1586
288.15 K, x1 = 0.1999 | 1200.79 | 1574.4
288.15 K, x1 = 0.2996 | 1221.49 | 1551.6
288.15 K, x1 = 0.3986 | 1233.35 | 1533.7
288.15 K, x1 = 0.4982 | 1241.17 | 1520
288.15 K, x1 = 0.5996 | 1246.83 | 1509.2
288.15 K, x1 = 0.6993 | 1251.01 | 1501
288.15 K, x1 = 0.8017 | 1254.33 | 1494.5
288.15 K, x1 = 0.8993 | 1256.9 | 1488.9
288.15 K, x1 = 1 | 1259.74 | 1486.1
298.15 K, x1 = 0.04996 | 1102.75 | 1590.4
298.15 K, x1 = 0.1 | 1149.85 | 1582.6
298.15 K, x1 = 0.1507 | 1176.19 | 1567.8
298.15 K, x1 = 0.1999 | 1193.14 | 1553.8
298.15 K, x1 = 0.2996 | 1213.77 | 1529
298.15 K, x1 = 0.3986 | 1225.71 | 1510.6
298.15 K, x1 = 0.4982 | 1233.63 | 1496.6
298.15 K, x1 = 0.5996 | 1239.37 | 1485.8
298.15 K, x1 = 0.6993 | 1243.63 | 1477.5
298.15 K, x1 = 0.8017 | 1247.06 | 1470.7
298.15 K, x1 = 0.8993 | 1249.64 | 1465
298.15 K, x1 = 1 | 1252.26 | 1461.4
308.15 K, x1 = 0.04996 | 1096.56 | 1583
308.15 K, x1 = 0.1 | 1142.62 | 1567
308.15 K, x1 = 0.1507 | 1168.56 | 1548.5
308.15 K, x1 = 0.1999 | 1185.37 | 1532.4
308.15 K, x1 = 0.2996 | 1206 | 1506.2
308.15 K, x1 = 0.3986 | 1218.04 | 1487.4
308.15 K, x1 = 0.4982 | 1226.07 | 1473.4
308.15 K, x1 = 0.5996 | 1231.92 | 1462.6
308.15 K, x1 = 0.6993 | 1236.25 | 1454.5
308.15 K, x1 = 0.8017 | 1239.76 | 1447.4
308.15 K, x1 = 0.8993 | 1242.39 | 1442
308.15 K, x1 = 1 | 1245.09 | 1437.8
318.15 K, x1 = 0.04996 | 1089.97 | 1572.9
318.15 K, x1 = 0.1 | 1135.15 | 1549.7
318.15 K, x1 = 0.1507 | 1160.74 | 1528
318.15 K, x1 = 0.1999 | 1177.49 | 1510.4
318.15 K, x1 = 0.2996 | 1198.16 | 1483.1
318.15 K, x1 = 0.3986 | 1210.34 | 1464.2
318.15 K, x1 = 0.4982 | 1218.51 | 1450.3
318.15 K, x1 = 0.5996 | 1224.48 | 1439.7
318.15 K, x1 = 0.6993 | 1228.9 | 1431.7
318.15 K, x1 = 0.8017 | 1232.49 | 1424.7
318.15 K, x1 = 0.8993 | 1235.16 | 1419.4
318.15 K, x1 = 1 | 1237.94 | 1414.9
328.15 K, x1 = 0.04996 | 1083.01 | 1560.3
328.15 K, x1 = 0.1 | 1127.45 | 1530.8
328.15 K, x1 = 0.1507 | 1152.76 | 1506.4
328.15 K, x1 = 0.1999 | 1169.5 | 1487.7
328.15 K, x1 = 0.2996 | 1190.27 | 1459.7
328.15 K, x1 = 0.3986 | 1202.62 | 1441
328.15 K, x1 = 0.4982 | 1210.95 | 1427.3
328.15 K, x1 = 0.5996 | 1217.05 | 1417
328.15 K, x1 = 0.6993 | 1221.57 | 1409.2
328.15 K, x1 = 0.8017 | 1225.24 | 1402.3
328.15 K, x1 = 0.8993 | 1227.97 | 1397.3
328.15 K, x1 = 1 | 1230.81 | 1392.7
338.15 K, x1 = 0.04996 | 1075.72 | 1545.4
338.15 K, x1 = 0.1 | 1119.53 | 1510.5
338.15 K, x1 = 0.1507 | 1144.53 | 1484
338.15 K, x1 = 0.1999 | 1161.26 | 1464.5
338.15 K, x1 = 0.2996 | 1182.3 | 1436.3
338.15 K, x1 = 0.3986 | 1194.89 | 1418
338.15 K, x1 = 0.4982 | 1203.39 | 1404.5
338.15 K, x1 = 0.5996 | 1209.64 | 1394.5
338.15 K, x1 = 0.6993 | 1214.26 | 1387
338.15 K, x1 = 0.8017 | 1218.03 | 1380.4
338.15 K, x1 = 0.8993 | 1220.81 | 1375.5
338.15 K, x1 = 1 | 1223.73 | 1371.1

CCCCn1cc[n+](C)c1.O=S(=O)([O-])C(F)(F)F [1-butyl-3-methylimidazolium trifluoromethanesulfonate] + O
Conditions | mass density [kg/m3] | speed of sound [m/s]
288.15 K, x1 = 0.05002 | 1122.78 | 1539.5
288.15 K, x1 = 0.09974 | 1178.77 | 1524.8
288.15 K, x1 = 0.1499 | 1211.09 | 1510.4
288.15 K, x1 = 0.3013 | 1257.47 | 1474.6
288.15 K, x1 = 0.3994 | 1272.13 | 1459
288.15 K, x1 = 0.4973 | 1281.71 | 1447.6
288.15 K, x1 = 0.5999 | 1289.22 | 1438
288.15 K, x1 = 0.6988 | 1294.59 | 1431.6
288.15 K, x1 = 0.8953 | 1302.01 | 1420.5
288.15 K, x1 = 1 | 1304.56 | 1416
298.15 K, x1 = 0.05002 | 1116.95 | 1538.2
298.15 K, x1 = 0.09974 | 1171.65 | 1514.3
298.15 K, x1 = 0.1499 | 1203.38 | 1494.8
298.15 K, x1 = 0.3013 | 1249.32 | 1453.8
298.15 K, x1 = 0.3994 | 1263.98 | 1437.3
298.15 K, x1 = 0.4973 | 1273.59 | 1425.5
298.15 K, x1 = 0.5999 | 1281.16 | 1415.7
298.15 K, x1 = 0.6988 | 1286.57 | 1408.8
298.15 K, x1 = 0.8953 | 1294.08 | 1397.7
298.15 K, x1 = 1 | 1296.67 | 1393
308.15 K, x1 = 0.05002 | 1110.67 | 1533.5
308.15 K, x1 = 0.09974 | 1164.25 | 1501.6
308.15 K, x1 = 0.1499 | 1195.48 | 1477.9
308.15 K, x1 = 0.3013 | 1241.1 | 1432.7
308.15 K, x1 = 0.3994 | 1255.79 | 1415.6
308.15 K, x1 = 0.4973 | 1265.46 | 1403.5
308.15 K, x1 = 0.5999 | 1273.1 | 1393.6
308.15 K, x1 = 0.6988 | 1278.56 | 1386.5
308.15 K, x1 = 0.8953 | 1286.15 | 1375.5
308.15 K, x1 = 1 | 1288.78 | 1370.7
318.15 K, x1 = 0.05002 | 1103.96 | 1525.8
318.15 K, x1 = 0.09974 | 1156.58 | 1486.9
318.15 K, x1 = 0.1499 | 1187.4 | 1459.8
318.15 K, x1 = 0.3013 | 1232.82 | 1411.4
318.15 K, x1 = 0.3994 | 1247.58 | 1393.8
318.15 K, x1 = 0.4973 | 1257.33 | 1381.7
318.15 K, x1 = 0.5999 | 1265.05 | 1371.7
318.15 K, x1 = 0.6988 | 1270.58 | 1364.7
318.15 K, x1 = 0.8953 | 1278.27 | 1353.8
318.15 K, x1 = 1 | 1280.95 | 1349
328.15 K, x1 = 0.05002 | 1096.85 | 1515.2
328.15 K, x1 = 0.09974 | 1148.65 | 1470.6
328.15 K, x1 = 0.1499 | 1179.14 | 1440.5
328.15 K, x1 = 0.3013 | 1224.48 | 1389.8
328.15 K, x1 = 0.3994 | 1239.35 | 1372.1
328.15 K, x1 = 0.4973 | 1249.21 | 1359.9
328.15 K, x1 = 0.5999 | 1257.03 | 1350.1
328.15 K, x1 = 0.6988 | 1262.64 | 1343.2
328.15 K, x1 = 0.8953 | 1270.44 | 1332.5
328.15 K, x1 = 1 | 1273.16 | 1327.8
338.15 K, x1 = 0.05002 | 1089.38 | 1502.3
338.15 K, x1 = 0.09974 | 1140.47 | 1452.7
338.15 K, x1 = 0.1499 | 1170.71 | 1420.3
338.15 K, x1 = 0.3013 | 1216.08 | 1368.1
338.15 K, x1 = 0.3994 | 1231.09 | 1350.4
338.15 K, x1 = 0.4973 | 1241.08 | 1338.3
338.15 K, x1 = 0.5999 | 1249.02 | 1328.7
338.15 K, x1 = 0.6988 | 1254.72 | 1321.6
338.15 K, x1 = 0.8953 | 1262.66 | 1311.2
338.15 K, x1 = 1 | 1265.44 | 1307
